Legend:
[1] = system: NIH:OVCAR-3 cells; assay: In vitro growth inhibition, NIH:OVCAR-3 ovarian carcinoma cells; assay type: cell-based; conditions: NIH:OVCAR-3, human ovarian carcinoma
Protocol: (§1) Synthetic halichondrin B I was tested in growth inhibition assays against several different tumor cell lines to obtain IC50 values. For comparison, the National Cancer Instititute reported growth inhibitory effects of natural halichondrin B against L1210 murine leukemia cells at IC50 =0.3 nM [J. Biol. Chem. 266:15882-15889 (1991)] and Hirata and Uemura reported IC50 =0.08 nM against B-16 murine melanoma cells [Pure Appl. Chem. 58:701-710 (1986)]. Both references are hereby incorporated in their entirety.

[2] = system: OVCA 433 cells; assay: In vitro growth inhibition, OVCA 433 ovarian carcinoma cells; assay type: cell-based; conditions: OVCA 433, human ovarian carcinoma
Protocol: as §1

[3] = system: DK-l cells; assay: In vitro growth inhibition, DK-l ras-transforming fibroblasts; assay type: cell-based; conditions: human ras-transforming fibroblasts
Protocol: as §1

[4] = system: Caov-3 cells; assay: In vitro growth inhibition, Caov-3 ovarian carcinoma cells; assay type: cell-based; conditions: Caov-3, human ovarian carcinoma
Protocol: as §1

[5] = system: L1210 murine leukemia cells; conditions: natural halichondrin B, J. Biol. Chem. 266:15882-15889 (1991), read-out: growth inhibitory effects, IC50; cited from earlier work
[6] = system: subcutaneous LOX human melanoma tumors; assay: In vivo anti-tumor effect on subcutaneous LOX human melanoma tumors in nude mice
Protocol: Mice received 1×10^6 LOX cells via s.c. injection on day 0, with complete injection randomization across sexes and treatment groups. On days 3-7 and 10-14, male and female experimental mice received 25 μg/kg of synthetic halichondrin B 1 via i.p. injection in saline; controls received saline alone.

[7] = system: LOX human melanoma cells; assay: In vitro growth inhibition, LOX melanoma cells; assay type: cell-based; conditions: Table 1, LOX, synthetic halichondrin B
Protocol: as §1
In addition, several synthetic halichondrin-related compounds were tested. […] For the structures of compounds 13-16, see FIG. 3.

[8] = system: HT-29 cells; assay: In vitro growth inhibition, HT-29 colon carcinoma cells; assay type: cell-based; conditions: HT-29, human colon carcinoma
Protocol: as §1

[9] = system: MG-63 cells; assay: In vitro growth inhibition, MG-63 osteosarcoma cells; assay type: cell-based; conditions: MG-63, human osteosarcoma
Protocol: as §1

[10] = system: B-16 murine melanoma cells; conditions: Pure Appl. Chem. 58:701-710 (1986), read-out: IC50 against B-16 cells; cited from earlier work
[11] = system: MCF-7 cells; assay: In vitro growth inhibition, MCF-7 breast carcinoma cells; assay type: cell-based; conditions: MCF-7, human breast carcinoma
Protocol: as §1

[12] = system: SK-OV-3 cells; assay: In vitro growth inhibition, SK-OV-3 ovarian carcinoma cells; assay type: cell-based; conditions: SK-OV-3, human ovarian carcinoma
Protocol: as §1

[13] = system: HL-60 cells; assay: In vitro growth inhibition, HL-60 monocytic leukemia cells; assay type: cell-based; conditions: HL-60, human monocytic leukemia
Protocol: as §1

Work on `C=C1C[C@@H]2CC[C@@]34C[C@H]5O[C@H]6[C@@H](O3)[C@H]3O[C@H](CC[C@@H]3O[C@H]6[C@H]5O4)CC(=O)O[C@@H]3[C@@H](C)[C@@H]4O[C@@H]5C[C@]6(C[C@@H]7O[C@]8(C[C@H](C)[C@@H]9O[C@H]([C@@H](O)C[C@@H](O)CO)C[C@@H]9O8)C[C@H](C)[C@@H]7O6)O[C@@H]5C[C@@H]4O[C@H]3C[C@H]3O[C@@H](CC[C@@H]1O2)C[C@@H](C)C3=C` [halichondrin B] yielded an IC50 [1] of 0.06 nM, an IC50 [2] of 0.16 nM and an IC50 [3] of 0.18 nM. For the same compound, the IC50 [4] was 0.25 nM, the IC50 [5] was 0.3 nM and the tumor growth ([6]; 25 μg/kg i.p. in saline, days 3-7 and 10-14, both sexes) was “prevented tumor growth almost completely in both sexes”. The “tumor growth after initial development period” value ([6]; 25 μg/kg i.p., days 3-7 and 10-14, after initial development into visible but very small tumors) was “failed to grow after an initial period of development into visible but very small tumors”, the tumor regression ([6]; 25 μg/kg i.p., after the initial development period) was “actually regressed” and the IC50 [7] was 0.08 nM. For the same compound, the IC50 [8] was 0.19 nM, the IC50 [9] was 0.13 nM and the IC50 [10] was 0.08 nM. The IC50 [11] was 0.2 nM, the IC50 [12] was 0.12 nM and the IC50 [13] was 0.12 nM.

— patent publication US5436238A, “Halichondrins and related compounds” (President and Fellows of Harvard College, priority 1993, dated 1995)
